Measurements as given in patent US20220235094A1, “CRYSTALLINE FORMS OF ANTIDEPRESSANT DRUG SAGE-217 AND PREPARATION METHOD THEREFOR” (priority 2019, published 2022).
“Also recorded” adds a separate entry of the source.

Experiments:
[1] = Stability compared between crystalline forms
[2] = DVS test (moisture adsorption isotherm, hygroscopicity); type: physicochemical
Method: The sample of crystalline form 04 prepared in Example 1 was placed on a microbalance plate in a sealed sample chamber, and then exposed to different relative humidity, the relative humidity ranged from […] to 90%, and changed in 10% increments. At each humidity level, the sample is balanced when dm/dt is less than 0.002% within 10 minutes. The mass of the dried sample and the equilibrium mass at each humidity level were recorded, and the weight change was plotted against relative humidity, which is the moisture adsorption isotherm of the sample.
Regarding the description of hygroscopicity characteristics and the definition of hygroscopic weight gain (Appendix XIX J of Chinese Pharmacopoeia 2010 Edition, Guidelines for Hygroscopicity, with experimental conditions: 25±1° C., 80% relative humidity):
Deliquescent: sufficient water is absorbed to form liquid
Extremely hygroscopic: the increase in mass is not less than 15%
Hygroscopic: the increase in mass is less than 15% but not less than 2%
Slightly hygroscopic: the increase in mass is less than 2% but not less than 0.2%
Practical nonhygroscopic: the increase in mass is less than 0.2%.

[3] = Crystalline form stability under different temperature and humidity conditions; type: physicochemical
Method: The samples of crystalline form 04 prepared in Example 1 were taken, and placed at 25° C./60% humidity and 40° C./75% humidity for 1 month; placed at 2-8° C. for 9 months: after the placement, the above-mentioned samples were taken out and tested for the crystalline form.

[4] = Thermodynamic solubility test in water; type: physicochemical; conditions: 25° C., 24 hours; for Area: HPLC
Method: Thermodynamic solubility test: the solid powder was added to water to a saturated solution, and then the suspension liquid was stirred under magnetic stirring at 25° C. for 24 hours. After completion, it was filtered with a 0.20 μm filter and analyzed by HPLC. Tests were carried out in parallel, and each group was tested twice to take the average.

[5] = Mechanical pressure stability, XRPD after 2 tons of pressure; type: physicochemical; conditions: 2 tons of mechanical pressure; for XRPD change after mechanical pressure: 100 mg sample
Method: To further evaluate the mechanical stability of the crystalline form 04 of the present application and the crystalline form K reported in WO 2018/039378 A1, a 100 mg sample was subjected to 2 tons of mechanical pressure, and the recovered tablets were gently ground and tested by XRPD.

[6] = Crystalline form stability as exposed powder and in sealed vial; conditions: for crystalline form stability in a sealed vial: 25° C./45% RH

Compound | stability compared with other crystalline forms [1] | Crystalline form after storage ([3]; 0-8° C., 9 months) | Crystalline form after storage ([3]; 2-8° C., 9 months) | Concentration (thermodynamic solubility) ([4]; Average) [µg/mL] | Concentration (thermodynamic solubility) ([4]; Group 1) [µg/mL] | Concentration (thermodynamic solubility) ([4]; Group 2) [µg/mL] | Area ([4]; Average) [mAu*s] | Area ([4]; Group 1) [mAu*s] | Area ([4]; Group 2) [mAu*s] | XRPD change after mechanical pressure [5] | crystalline form stability in a sealed vial [6] | time stable in the exposed powder state [6] [h] | other results
C[C@@]1(O)CC[C@H]2[C@H](CC[C@@H]3[C@@H]2CC[C@]2(C)[C@@H](C(=O)Cn4cc(C#N)cn4)CC[C@@H]32)C1 [crystalline form 08, 1-(2-((3R,5R,8R,9R,10S,13S,14S,17S)-3-hydroxy-3,13-dimethylhexadecahydro-1H-cyclopenta[a]phenanthren-17-yl)-2-oxoethyl)-1H-pyrazole-4-carbonitrile] | relatively low stability | – | – | – | – | – | – | – | – | – | – | – | –
C[C@@]1(O)CC[C@H]2[C@H](CC[C@@H]3[C@@H]2CC[C@]2(C)[C@@H](C(=O)Cn4cc(C#N)cn4)CC[C@@H]32)C1 [crystalline form 04, 1-(2-((3R,5R,8R,9R,10S,13S,14S,17S)-3-hydroxy-3,13-dimethylhexadecahydro-1H-cyclopenta[a]phenanthren-17-yl)-2-oxoethyl)-1H-pyrazole-4-carbonitrile] | – | the crystalline form remains | form 04 | 0.4375 | 0.4506 | 0.4243 | 12.2 | 12.6 | 11.8 | no obvious change | more than seven days | – | hygroscopicity ([2]; DVS curve): no or almost no hygroscopicity; also recorded: no hygroscopicity; water absorption ([2]; DVS, 25° C., relative humidity changed from 40%/0 to 90%): 0.06%; Crystalline form after storage ([3]; 25° C., 60% relative humidity, 1 month): stored stably for one month without change; also recorded: form 04; Crystalline form after storage ([3]; 40° C., 75% relative humidity, 1 month): stored stably for one month without change; also recorded: form 04; mechanical / physical stability compared with crystalline form K [5]: better than that of the crystalline form K; also recorded: better mechanical stress stability; time stable in the exposed powder state ([6]; time in words): one day
C[C@@]1(O)CC[C@H]2[C@H](CC[C@@H]3[C@@H]2CC[C@]2(C)[C@@H](C(=O)Cn4cc(C#N)cn4)CC[C@@H]32)C1 [crystalline form 06, 1-(2-((3R,5R,8R,9R,10S,13S,14S,17S)-3-hydroxy-3,13-dimethylhexadecahydro-1H-cyclopenta[a]phenanthren-17-yl)-2-oxoethyl)-1H-pyrazole-4-carbonitrile] | – | – | – | – | – | – | – | – | – | – | more than seven days | 16 | –
C[C@@]1(O)CC[C@H]2[C@H](CC[C@@H]3[C@@H]2CC[C@]2(C)[C@@H](C(=O)Cn4cc(C#N)cn4)CC[C@@H]32)C1 [crystalline form D-1, 1-(2-((3R,5R,8R,9R,10S,13S,14S,17S)-3-hydroxy-3,13-dimethylhexadecahydro-1H-cyclopenta[a]phenanthren-17-yl)-2-oxoethyl)-1H-pyrazole-4-carbonitrile] | better stability than crystalline form D | the crystalline form remains | the crystalline form did not change | – | – | – | – | – | – | – | more than seven days | 18 | –
C[C@@]1(O)CC[C@H]2[C@H](CC[C@@H]3[C@@H]2CC[C@]2(C)[C@@H](C(=O)Cn4cc(C#N)cn4)CC[C@@H]32)C1 [crystalline form D-2, 1-(2-((3R,5R,8R,9R,10S,13S,14S,17S)-3-hydroxy-3,13-dimethylhexadecahydro-1H-cyclopenta[a]phenanthren-17-yl)-2-oxoethyl)-1H-pyrazole-4-carbonitrile] | better stability than crystalline form D | – | – | – | – | – | – | – | – | – | more than seven days | 18 | –
C[C@@]1(O)CC[C@H]2[C@H](CC[C@@H]3[C@@H]2CC[C@]2(C)[C@@H](C(=O)Cn4cc(C#N)cn4)CC[C@@H]32)C1 [crystalline form K, 1-(2-((3R,5R,8R,9R,10S,13S,14S,17S)-3-hydroxy-3,13-dimethylhexadecahydro-1H-cyclopenta[a]phenanthren-17-yl)-2-oxoethyl)-1H-pyrazole-4-carbonitrile, reference compound] | – | – | – | 0.398 | 0.3927 | 0.4032 | 11.1 | 10.9 | 11.2 | a slight decrease in its crystallinity | – | – | –
